Assays:
recombinant human CLK3 = molecular target: T1, recombinant human CLK3 (Homo sapiens, UniProt P49761); assay: CLK3 kinase assay (LANCE Ultra); format: biochemical; conditions: CLK3 0.5 nM, ATP 300 μM, 3 hours at 30° C.
T1 construct: purchased Thermo Fisher Scientific PV3826
Experimental: CLK3 kinase activity was measured using the LANCE® Ultra technology (PerkinElmer) essentially as recommended by the supplier. Briefly, 2.5 μL of test sample at 4× the desired final concentration in 4% DMSO were dispensed into white, low volume, round bottom, 384 well plates (Corning, cat. no. 4512). 5 μL of a mixture containing recombinant human CLK3 (Thermo Fisher Scientific, cat. no. PV3826) and the labeled peptide substrate ULight™-CREBtide (PerkinElmer, cat. no. TRF0107) prepared in 1.33× kinase buffer (Thermo Fisher Scientific, cat. no. PV3189) were then added. Finally, the reactions were started by adding 2.5 μL of a 4× solution of ATP in kinase buffer. The plates were sealed with adhesive foils and incubated for 3 hours at 30° C. in the dark. The final concentrations of CLK3, ULight™-CREBtide, and ATP were 0.5 nM, 50 nM, and 300 μM, respectively. 5 μL of 40 mM EDTA were then added to terminate the reactions. The Eu-anti-phospho-CREB antibody (PerkinElmer, cat. no. TRF0200) diluted in LANCE® detection buffer (PerkinElmer, cat. no. CR97) was then added to a final concentration of 2 nM and the reactions were incubated for 1 hour at room temperature in the dark. The signals were measured using a Synergy 4 reader (BioTek) with a 320/80 nm filter for the excitation and 620/10 nm and 665/8 nm filters for the donor and acceptor emission, respectively. Relative inhibition values were calculated by normalizing the raw data using solvent control wells (0% inhibition) and wells that received no ATP (100% inhibition). IC50 values were calculated by fitting the concentration-response data to a sigmoidal 4-parameter logistic model. IC50 values for CLK3 are determined from duplicate measurements at ten different concentrations (serial 1:3 dilutions).

MDA-MB-231 cells = assay: MDA-MB-231 proliferation assay; format: cell-based; conditions: Homo sapiens, MDA-MB-231, 72 h, YO-PRO-1 Iodide readout
Description: (§1) MDA-MB-231 and CAL-51 Proliferation Assay
(§2) Cells (MDA-MB-231 (American Type Culture Collection (ATCC), #HTB-26) or CAL-51 (Deutsche Sammlung von Mikroorganismen und Zellkulturen (DSMZ), #ACC302) as applicable) were cultivated in DMEM High Glucose (4.5 g/L) with L-Glutamine (BioConcept, cat. no. 1-26F03-I) supplemented with 1% Na-pyruvate (Sigma, cat. no. S8636), 1% Penicillin-Streptomycin (BioConcept, cat. no. 4-01F00H), and 10% FBS (Sigma, cat. no. F9665) using standard techniques. Cells were seeded in black, clear-bottom 384 well plates for tissue culture (Greiner Bio-One, cat. no. 781091) at a density of 750 cells per well in 20 μL medium and the plates were incubated overnight at 37° C. with 5% CO2 prior to treatment. Experimental compounds were serially diluted in DMSO to 200× the desired final concentrations. The solutions were then diluted 1:40 with culture medium and 5 μL aliquots were mixed into the wells containing the cells. The final concentration of DMSO was 0.5%. The plates were incubated for 72 hours and cell numbers were then measured using YO-PRO™-1 Iodide (ThermoFisher Scientific, cat. no. Y3603) essentially as recommended by the manufacturer. Briefly, a 12.5 μM solution of YO-PRO™_1 Iodide in 5× YO—PRO buffer (100 mM Na-citrate, 130 mM NaCl, pH 4) was combined with an equal volume of lysis buffer (0.6% NP-40, 30 mM EDTA, 30 mM EGTA, 0.33× YO—PRO buffer) and 12.5 μL of the mixture were dispensed into each well. The plates were incubated at room temperature in the dark for 30 minutes. Fluorescence intensity signals were then measured on a Synergy 4 reader (BioTek) using 485/20 nm and 530/25 nm filters for the excitation and emission, respectively. Relative proliferation values were calculated by normalizing the raw data using DMSO-treated cells (100% proliferation) and the signals obtained from cells that were evaluated at the time of compound addition (0% proliferation). The concentration-response data were fitted to a sigmoidal 4-parameter logistic model with the maximum constrained to 100%. GI50 values were calculated from the curves as the compound concentrations reducing proliferation to 50%.

CAL-51 cells = assay: CAL-51 proliferation assay; format: cell-based; conditions: Homo sapiens, CAL-51, 72 h, YO-PRO-1 Iodide readout
Description: as §1, §2

T1 sequence (P49761 whole entry): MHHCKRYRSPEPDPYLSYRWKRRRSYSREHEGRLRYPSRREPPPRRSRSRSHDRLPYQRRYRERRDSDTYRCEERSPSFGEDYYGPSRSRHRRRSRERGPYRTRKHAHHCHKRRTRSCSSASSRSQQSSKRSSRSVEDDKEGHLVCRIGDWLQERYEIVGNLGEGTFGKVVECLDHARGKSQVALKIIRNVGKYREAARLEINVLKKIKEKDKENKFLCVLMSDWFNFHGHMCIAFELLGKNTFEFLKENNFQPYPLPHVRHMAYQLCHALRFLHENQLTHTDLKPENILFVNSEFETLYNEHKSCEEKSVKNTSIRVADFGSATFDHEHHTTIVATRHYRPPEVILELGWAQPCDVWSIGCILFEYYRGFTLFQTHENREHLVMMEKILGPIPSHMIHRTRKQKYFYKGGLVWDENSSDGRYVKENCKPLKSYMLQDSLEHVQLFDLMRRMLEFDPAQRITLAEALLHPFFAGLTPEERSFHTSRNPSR

Row | SMILES | IC50 (recombinant human CLK3) | GI50 (MDA-MB-231 cells) | GI50 (CAL-51 cells)
1 | CC1(C)Cc2c(ccc(O[C@H]3CC[C@H](N)CC3)c2N2CCOCC2)-c2ncnc(N)c21 [Example 10, 8-(trans-4-aminocyclohexoxy)-5,5-dimethyl-7-morpholino-6H-benzo[h]quinazolin-4-amine] | 30 to 100 nM | 100 to 2000 nM | 100 to 2000 nM
2 | CC1(C)Cc2c(ccc(O[C@H]3CC[C@H](N)CC3)c2N(CCC#N)C2CC2)-c2ncnc(N)c21 [Example 51, 3-[[4-amino-8-(trans-4-aminocyclohexoxy)-5,5-dimethyl-6H-benzo[h]quinazolin-7-yl]-cyclopropyl-amino]propanenitrile] | < 30 nM | < 100 nM | < 100 nM
3 | CN(CCCC#N)c1c(O[C@H]2CC[C@H](N)CC2)ccc2c1CC(C)(C)c1c(N)ncnc1-2 [Example 58, 4-[[4-amino-8-(4-trans-aminocyclohexoxy)-5,5-dimethyl-6H-benzo[h]quinazolin-7-yl]-methyl-amino]butanenitrile] | < 30 nM | 100 to 2000 nM | < 100 nM
4 | CN(CC#N)C(=O)c1c(O[C@H]2CC[C@H](N)CC2)ccc2c1CC(C)(C)c1c(N)ncnc1-2 [Example 94, 4-amino-8-(trans-4-aminocyclohexoxy)-N-(cyanomethyl)-N,5,5-trimethyl-6H-benzo[h]quinazoline-7-carboxamide] | 101 to 1000 nM | > 2000 nM | 100 to 2000 nM
5 | CN(Cc1ccncc1)c1c(O[C@H]2CC[C@H](N)CC2)ccc2c1CC(C)(C)c1c(N)ncnc1-2 [Example 101, 8-(trans-4-aminocyclohexoxy)-N7,5,5-trimethyl-N7-(4-pyridylmethyl)-6H-benzo[h]quinazoline-4,7-diamine] | 101 to 1000 nM | 100 to 2000 nM | 100 to 2000 nM
6 | CN(Cc1cocn1)c1c(O[C@H]2CC[C@H](N)CC2)ccc2c1CC(C)(C)c1c(N)ncnc1-2 [Example 105, 8-(trans-4-aminocyclohexoxy)-N7,5,5-trimethyl-N7-(oxazol-4-ylmethyl)-6H-benzo[h]quinazoline-4,7-diamine] | 101 to 1000 nM | 100 to 2000 nM | 100 to 2000 nM
7 | COCCNc1c(O[C@H]2CC[C@H](N)CC2)ccc2c1CC1(CCCC1)c1c(N)ncnc1-2 [Example 62, 8-(trans-4-aminocyclohexoxy)-N7-(2-methoxyethyl)spiro[6H-benzo[h]quinazoline-5,1′-cyclopentane]-4,7-diamine] | 101 to 1000 nM | 100 to 2000 nM | 100 to 2000 nM
8 | Nc1ncnc2c1C1(CCCC1)Cc1c-2ccc(O[C@H]2CC[C@@H](N)CC2)c1NCC(=O)O [Example 79, 2-[[4-amino-8-(cis-4-aminocyclohexoxy)spiro[6H-benzo[h]quinazoline-5,1′-cyclopentane]-7-yl]amino]acetic acid] | 30 to 100 nM | > 2000 nM | > 2000 nM
9 | COc1ccc2c(c1C)CC(C)(C)c1c(N)ncnc1-2 [Example 1, 8-methoxy-5,5,7-trimethyl-6H-benzo[h]quinazolin-4-amine] | < 30 nM | > 2000 nM | 100 to 2000 nM
10 | CC1(C)Cc2c(ccc(O[C@H]3CC[C@H](N)CC3)c2N2CCCCC2)-c2ncnc(N)c21 [Example 9, 8-(trans-4-aminocyclohexoxy)-5,5-dimethyl-7-(1-piperidyl)-6H-benzo[h]quinazolin-4-amine] | < 30 nM | 100 to 2000 nM | < 100 nM
11 | CC1(C)Cc2c(ccc(Br)c2N2CCC(C#N)C2)-c2ncnc(N)c21 (stereo not drawn) [Example 120, 1-(4-amino-8-bromo-5,5-dimethyl-6H-benzo[h]quinazolin-7-yl)pyrrolidine-3-carbonitrile] | 101 to 1000 nM | 100 to 2000 nM | 100 to 2000 nM
12 | CN(Cc1c[nH]cn1)c1c(O[C@H]2CC[C@H](N)CC2)ccc2c1CC(C)(C)c1c(N)ncnc1-2 [Example 103, 8-(trans-4-aminocyclohexoxy)-N7-(1H-imidazol-4-ylmethyl)-N7,5,5-trimethyl-6H-benzo[h]quinazoline-4,7-diamine] | 30 to 100 nM | 100 to 2000 nM | 100 to 2000 nM
13 | CN(CC(C)(C)C(N)=O)c1c(O[C@H]2CC[C@H](N)CC2)ccc2c1CC(C)(C)c1c(N)ncnc1-2 [Example 88, 3-[[4-amino-8-(trans-4-aminocyclohexoxy)-5,5-dimethyl-6H-benzo[h]quinazolin-7-yl]-methyl-amino]-2,2-dimethyl-propanamide] | 30 to 100 nM | > 2000 nM | 100 to 2000 nM
14 | CN(CC(C)(C)CO)c1c(O[C@H]2CC[C@H](N)CC2)ccc2c1CC(C)(C)c1c(N)ncnc1-2 [Example 110, 3-[[4-amino-8-(trans-4-aminocyclohexoxy)-5,5-dimethyl-6H-benzo[h]quinazolin-7-yl]-methyl-amino]-2,2-dimethyl-propan-1-ol] | < 30 nM | 100 to 2000 nM | < 100 nM
15 | CN(CCC#N)c1c(N2CCNCC2)ccc2c1CC(C)(C)c1c(N)ncnc1-2 [Example 125, 3-[(4-amino-5,5-dimethyl-8-piperazin-1-yl-6H-benzo[h]quinazolin-7-yl)-methyl-amino]propanenitrile] | < 30 nM | < 100 nM | < 100 nM
16 | CC1(C)Cc2c(ccc(O[C@H]3CC[C@H](N)CC3)c2N2CCC(O)C2)-c2ncnc(N)c21 (single isomer, unassigned) [Example 15, 1-[4-amino-8-(trans-4-aminocyclohexoxy)-5,5-dimethyl-6H-benzo[h]quinazolin-7-yl]pyrrolidin-3-ol] | < 30 nM | 100 to 2000 nM | < 100 nM
17 | CC1(C)Cc2c(ccc(O[C@H]3CC[C@H](N)CC3)c2NC[C@@H]2CNC(=O)O2)-c2ncnc(N)c21 [Example 129, (5R)-5-[[[4-amino-8-(trans-4-aminocyclohexoxy)-5,5-dimethyl-6H-benzo[h]quinazolin-7-yl]amino]methyl]oxazolidin-2-one] | < 30 nM | > 2000 nM | > 2000 nM
18 | COc1ccc2c(c1N1CCC(C#N)C1)CC(C)(C)c1c(N)ncnc1-2 (stereo not drawn) [Example 55, 1-(4-amino-8-methoxy-5,5-dimethyl-6H-benzo[h]quinazolin-7-yl)pyrrolidine-3-carbonitrile] | 30 to 100 nM | < 100 nM | < 100 nM
19 | CN(CC#N)c1c(O[C@H]2CC[C@H](N)CC2)ccc2c1CC(C)(C)c1c(N)ncnc1-2 [Example 33, 2-[[4-amino-8-(trans-4-aminocyclohexoxy)-5,5-dimethyl-6H-benzo[h]quinazolin-7-yl]-methyl-amino]acetonitrile] | < 30 nM | 100 to 2000 nM | < 100 nM
20 | CN(CCC#N)c1c(Br)ccc2c1CC(C)(C)c1c(N)ncnc1-2 [Example 115, 3-[(4-amino-8-bromo-5,5-dimethyl-6H-benzo[h]quinazolin-7-yl)-methyl-amino]propanenitrile] | < 30 nM | 100 to 2000 nM | < 100 nM
21 | CN(CCOC(F)(F)F)c1c(O[C@H]2CC[C@H](N)CC2)ccc2c1CC(C)(C)c1c(N)ncnc1-2 [Example 47, 8-(trans-4-aminocyclohexoxy)-N7,5,5-trimethyl-N7-[2-(trifluoromethoxy)ethyl]-6H-benzo[h]quinazoline-4,7-diamine] | 30 to 100 nM | 100 to 2000 nM | < 100 nM

Reference: patent US20260159486A1, “BENZO[H]QUINAZOLINE-4-AMINE DERIVATIVES FOR THE TREATMENT OF CANCER” (Redona Therapeutics, Inc., priority 2021, published 2026)
